Reference: US8828678B2, “Self-immolative probes for enzyme activity detection” (Enzo Life Sciences, Inc., priority 2010, dated 2014)

Assay: Chemical reduction of CD-8 and enzymatic (HRP) luminescence testing of the reduction product
Details: 200 μM CD-8, 1 mM sodium hydrosulfite, 1 hour room temperature, then H2O2, 4-iodophenol
Method: 100 μl of 200 μM CD-8 (dissolved in 1×PBS buffer) with (1 mM) or without sodium hydrosulfite was incubated in a 96 black microplate (Greiner®) at room temperature for 1 hour. Also included was a positive control of 100 μl of 50 μM of isoluminol dissolved in 1×PBS buffer. A 4:1 volumetric mixture (1.25 μL) of stabilized H2O2 (Roche Diagnotics GmbH: Reference number: 11 582 950 001, component 2) and 200 mM of 4-idophenol was then added. Before adding horseradish peroxidase (HRP), the background luminescence was recorded; after adding 2 μL of 50 μM HRP, the luminescence was immediately recorded on a Biotek® plate reader.

O=C(Nc1ccc2c(=O)[nH][nH]c(=O)c2c1)OCc1ccc([N+](=O)[O-])cc1 [CD-8]
luminescence / release of isoluminol after sodium hydrosulfite: triggering the self-immolative release of isoluminol
